US7241581B2, “Methods of identifying compounds that modulate IL-4 receptor-mediated IgE synthesis utilizing a c-MYC protein” (Rigel Pharmaceuticals, Inc., priority 2002, dated 2007)
“And” between values parts separate entries of the source, which are not always exact repeats. Equal values may be shown once.

How the values were obtained:
[1] = biological target: T1, human c-Myc protein (Homo sapiens, UniProt P01106); experiment: Yeast two hybrid (YTH) interaction assay, β-galactosidase; format: binding
T1 construct: expressed in transfected cells; prey cDNA library made from the A5T4 reporter line (human BJAB B-cells)
Description: Potential binding partners for peptide BR10A1 wt were identified in a β-galactosidase yeast two-hybrid (YTH) assay using peptide BR10A1 wt as bait and a cDNA library constructed from the A5T4 reporter cell line as prey. Binding was assessed by β-galactosidase quantification using BetaFluor (Novagen) as a substrate. A negative interaction control (no cDNA fused downstream of the GAL4 activation domain sequence) was also run. A general outline of the YTH assay is illustrated in FIG. 5A. Following clustering, filtering to remove non-specific bait hits (e.g., GFP and BFP), singletons and clusters recognized by 10 or more cDNA baits (based upon historical YTH assays), and prioritization, 30 prey clones were identified as hits.
Potential targets identified in the YTH assay were reconfirmed as generally outlined in FIG. 6. The cDNA clones identified as hits in the YTH assay were purified and rescreened for interaction with the BR10A1 wt peptide in a YTH assay. The hit clones were also screened in a control assay for interaction with the BFP using a vector (pGBKT7) that contained only the BFP and not the BR10A1 peptide. At this stage, 25 putative target clones remained.
The interaction of BR10A1 wt peptide and its mutants with the clones identified as potential targets for the peptide BR10A1 wt was then quantified in a β-galactosidase YTH assay. The YTH assay was performed in the manner described above. A general outline of this YTH assay is illustrated in FIG. 5B. For each clone tested, an interaction profile was developed by comparing the β-galactosidase activity of each mutant to that of the wild type peptide as described above.
The interaction of selected IOF, ROF and LOF mutants with different polypeptides encoded by the putative target clones were quantified using the YTH assay described above. Based on the YTH assay, for each putative target, the mutants were categorized into the following four interaction categories: (1) reduction of interaction (ROI); (2) loss of interaction (LOI); (3) increase of interaction (IOI); and (4) interactionally neutral (N), by assessing the binding affinity ratio of the mutant peptide and the wild type peptide (β-gal activity of mutant/wild type) to the putative target. The selection criteria for categorizing the interactions is shown on FIG. 8.

[2] = system: germline ε promoter; experiment: Functional profile of BR10A1 wt and mutants in the A5T4 reporter cell line; format: cell-based, human; settings: for Reporter Ratio: A5T4 reporter line; for functional category as compared to the activity of the wild type peptide: based on reporter ratio, % change calculated after subtracting 1.0 from the ratios
Description: Following infection, the library was enriched for cells expressing peptides that inhibit IL-4 induced ε transcription as generally outlined in the top half of FIG. 3 and sorted by FACS into single cell clones. The clones were then screened as generally illustrated in the lower half of FIG. 3. Briefly, for screening, each clone was divided into two populations and one population was treated with Dox (10 ng/ml). After 5 days, both populations were stimulated with IL-4 (final conc. 60 U/mL; PeptroTech, Inc.) and, after 3 more days, both populations were analyzed by FACS to measure BFP and GFP fluorescence. FACS data were converted to a “reporter ratio”, which is defined for this purpose as the ratio of the geometric mean of GFP fluorescence of the +IL-4/+Dox to the +IL-4/−Dox populations. Cells expressing a peptide that inhibits germline ε transcription have a reporter ratio of ≧1.1. A reporter ratio of ≧1.2 is indicative of strong inhibition.
The ability of peptide BR10A1 wt to inhibit germline ε transcription was confirmed in naive cells. Briefly, Phoenix cells were transfected with a retroviral vector encoding a BFP-BR10A1 wt peptide fusion as described in WO 99/58663 and WO 97/27213. Naïve A5T4 cells were infected with the resultant virions and grown for 3 days. The infected cells were stimulated with IL-4 (60 U/mL) and, after 3 days, the cells were assessed by FACS for BFP and GFP. […] The BFP fluorescence data corresponding to the BFP^+ and BFP^− populations are provided in Panel A. The GFP fluorescence data corresponding to the BFP^+ and BFP^− populations are presented in Panel B. The reporter ratio for this purpose is determined as the geometric mean of the GFP fluorescence of the BFP^− population divided by the geometric mean of the GFP fluorescence of the BFP^+ population. The reporter ratio for the BR10A1 in this re-infection assay was 1.27.
A collection of BR10A1 mutants was generated by replacing single or double amino acid residues in the sequence of BR10A1 wt with a different amino acid, typically an alanine or glycine, as described in copending application Ser. No.10/095,659, entitled Methods of Identifying Protein Targets, filed Mar. 8, 2002 . The functional profiles for the mutants derived from BR10A1 wt was obtained by constructing and screening for activity in the A5T4 reporter cell line in the manner described above. The activity of each mutant at the germline ε promoter is reflected in the reporter ratio as described above. The reporter ratios were the functional values that were used to develop the functional profiles. Measurement of the reporter ratios of the mutant peptides was carried out in a number of separate experiments, each time comparing the value of cells transfected with mutant peptide to that of cells transfected with control WT peptide done at the same time. The reporter ratios of the control WT peptide can vary depending upon a number of factors including the infectivity or the state of the infected cells at the time of infection.
TABLE 2 depicts the amino acid sequences (the dual alanine mutations are underlined) of the mutants tested and the measured reporter ratios when screening in the A5T4 reporter line.
Comparison of the interaction and functional profiles was performed by categorizing the mutants of BR10A1 based on the functional and interaction assays. Based on the reporter ratio, each mutant was categorized into one of four functional categories: (1) reduction of function (ROF); (2) loss of function (LOF); (3) increase of function (IOF) or (4) functionally neutral (N) as compared to the activity of the wild type peptide, here BR10A1 wt. As mentioned previously, cells expressing a peptide that inhibits germline ε transcription have reporter ratios of ≧1.1. Cells expressing a loss of function (LOF) mutant have a reporter ratio of <1.11. […] Functionally neutral mutants have reporter ratios that fall within ±50% of that of the BR10A1 wt peptide. […]

[3] = second value column (separate experiment with its own WT control)
[4] = separate experiment with its own WT control

T1 sequence (P01106 whole entry): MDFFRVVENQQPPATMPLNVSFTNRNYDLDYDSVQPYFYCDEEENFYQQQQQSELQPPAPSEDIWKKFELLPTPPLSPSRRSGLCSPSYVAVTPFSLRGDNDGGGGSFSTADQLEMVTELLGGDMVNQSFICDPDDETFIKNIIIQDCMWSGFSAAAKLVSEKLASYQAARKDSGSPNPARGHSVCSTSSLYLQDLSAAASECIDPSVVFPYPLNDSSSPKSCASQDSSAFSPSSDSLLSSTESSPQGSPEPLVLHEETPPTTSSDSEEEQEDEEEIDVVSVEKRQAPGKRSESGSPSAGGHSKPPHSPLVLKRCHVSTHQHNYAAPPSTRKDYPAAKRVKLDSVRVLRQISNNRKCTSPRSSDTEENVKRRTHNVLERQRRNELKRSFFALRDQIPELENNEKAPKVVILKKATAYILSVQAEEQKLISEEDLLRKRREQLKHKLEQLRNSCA

binding to human c-Myc protein in yeast two hybrid interaction assay [1] | Sequence | Reporter Ratio [2, 3] | Reporter Ratio [2, 4] | also measured
found to bind | MQRRESCIAASVEEGWGLFYLGP (peptide encoded by random oligo-BR10A1TR) [dual alanine mutant of BR10A1 wt] | 1.62 |  | functional category as compared to the activity of the wild type peptide [2]: IOF (An increase of function mutant (IOF) shows a >50% increase in reporter ratio)
 | MQRRESCITRSVEEAAGLFYLGP (peptide encoded by random oligo-BR10A1GW) [dual alanine mutant of BR10A1 wt] | 1.23 |  | 
 | MQRRESCITRSVAAGWGLFYLGP (peptide encoded by random oligo-BR10A1EE) [dual alanine mutant of BR10A1 wt] | 1.39 |  | 
found to bind | MQRRESCITRSVEEGWAAFYLGP (peptide encoded by random oligo-BR10A1GL) [dual alanine mutant of BR10A1 wt] | 1.44 |  | 
found to bind | MQRRESAATRSVEEGWGLFYLGP (peptide encoded by random oligo-BR10A1CI) [dual alanine mutant of BR10A1 wt] | 1.16 |  | functional category as compared to the activity of the wild type peptide [2]: ROF (a reduction of function (ROF) of mutant shows a >50% decrease in reporter ratio)
found to bind | MQRRAACITRSVEEGWGLFYLGP (peptide encoded by random oligo-BR10A1ES) [dual alanine mutant of BR10A1 wt] |  | 1.50 | 
 | MQRRESAATRSVEEAAGLFYLGP (peptide encoded by random oligo-BR10A1CIGW) [mutant of BR10A1 wt with alanines at CI and GW] |  |  | Reporter Ratio ([2]; fourth value column (separate experiment with its own WT control)): 1.08 and 1.15; functional category as compared to the activity of the wild type peptide [2]: LOF/ROF
 | MQRRESCITRSVEEGWGLAALGP (peptide encoded by random oligo-BR10A1FY) [dual alanine mutant of BR10A1 wt] |  | 1.34 | 
 | MQRRESCITRSVEEGWGLFY (peptide encoded by random oligo-BR10A1STOP) [C-terminally truncated form of BR10A1 wt] |  | 1.34 | 
 | AARRESCITRSVEEGWGLFYLGP (peptide encoded by random oligo-BR10A1MQ) [dual alanine mutant of BR10A1 wt] |  | 1.57 | 
 | MQAAESCITRSVEEGWGLFYLGP (peptide encoded by random oligo-BR10A1RR) [dual alanine mutant of BR10A1 wt] |  |  | Reporter Ratio ([2]; first value column (separate experiment with its own WT control)): 1.32
